Entries after “also recorded” stand apart in the source; their conditions may differ. Like-named read-outs stand apart in the source and are kept apart here.
What was measured:
[1] = tested on: MCF-7 (estrogen receptor-positive breast cancer); test: Antiproliferative SRB assay, MCF-7; type: cell-based; conditions: Homo sapiens, MCF7, SRB assay, 72 h, read-out: IC50 MCF-7
Method: (§1) We tested the fourteen known aspidosperma-type alkaloids (1–14) against chemosensitive KB (originally isolated from epidermoid carcinoma of the nasopharynx) and P-gp over-expressing multidrug-resistant (MDR) KB subline KB-VIN, as well as three additional human cancer cell lines, A549 (lung carcinoma), MDA-MB-231 (triple negative breast cancer), and MCF-7 (estrogen receptor-positive breast cancer), using a sulforhodamine B (SRB) assay (Table 1).
(§2) Antiproliferative activity was determined by the sulforhodamine B (SRB) colorimetric assay as previously described. In brief, human tumor cell lines were cultured in RPMI-1640 medium containing 2 mM l-glutamine and 25 mM HEPES (Gibco), supplemented with 10% fetal bovine serum (Speciality Media), 100 µg/mL streptomycin, 100 IU/mL penicillin, and 0.25 µg/mL amphotericin B (Corning). MDR stock cells (KB-VIN) were maintained in the presence of 100 nM vincristine (VIN) (Sigma-Aldrich, Saint Louis, MI, USA).
(§3) Freshly trypsinized cell suspensions were seeded in 96-well microtiter plates at densities of 4000–11,000 cells per well (based on the cell lines) with compounds. After 72 h in culture with test compounds, cells were fixed in 10% trichloroacetic acid followed by staining with 0.04% sulforhodamine B (Sigma-Aldrich). The bound SRB was solubilized in 10 mM Tris-base and the absorbance at 515 nm was measured using a Microplate Reader (ELx800, Bio-Tek Instruments, Winooski, VT, USA) operated by Gen5 software (BioTek) after solubilizing the protein-bound dye with 10 mM Tris base. The mean IC50 is the concentration of agent that reduced cell growth by 50% compared with vehicle (DMSO) control under the experimental conditions and is the average from at least three independent experiments with duplicate samples.
(§4) The following human tumor cell lines were used in the assay: A549 (lung carcinoma), MDA-MB-231 (triplen-egative breast cancer), KB (originally isolated from epidermoid carcinoma of the nasopharynx), KB-VIN (VIN-resistant KB subline showing MDR phenotype by overexpressing P-gp), MCF-7 (estrogen receptor (ER)-positive, HER2-negative breast cancer). […] All cell lines were obtained from the Lineberger Comprehensive Cancer Center (UNC-CH) or from ATCC (Manassas, VA), except KB-VIN, which was a generous gift from Professor Y.-C. Cheng (Yale University). Paclitaxel was purchased from Sigma-Aldrich.

[2] = tested on: KB (originally isolated from epidermoid carcinoma of the nasopharynx); test: Antiproliferative SRB assay, KB; type: cell-based; conditions: Homo sapiens, SRB assay, 72 h, read-out: IC50 KB
Method: as §1, §2, §3, §4

[3] = molecular target: T1, tubulin (colchicine site) (Bos taurus, UniProt P81947+Q6B856); test: Inhibition of [3H]colchicine binding to tubulin; set-up: species or system bovine; conditions: 5 μM [3H]colchicine, 1 μM tubulin, 5 μM test compound, 37 °C, 10 min, NA = not active; for inhibition at 5 µM: read-out: Tubulin Assay ICB: percent inhibition of [3H]colchicine binding
T1 construct: electrophoretically homogeneous bovine brain tubulin; from tissue; host or cells: bovine brain
T1 sequence (P81947 whole entry): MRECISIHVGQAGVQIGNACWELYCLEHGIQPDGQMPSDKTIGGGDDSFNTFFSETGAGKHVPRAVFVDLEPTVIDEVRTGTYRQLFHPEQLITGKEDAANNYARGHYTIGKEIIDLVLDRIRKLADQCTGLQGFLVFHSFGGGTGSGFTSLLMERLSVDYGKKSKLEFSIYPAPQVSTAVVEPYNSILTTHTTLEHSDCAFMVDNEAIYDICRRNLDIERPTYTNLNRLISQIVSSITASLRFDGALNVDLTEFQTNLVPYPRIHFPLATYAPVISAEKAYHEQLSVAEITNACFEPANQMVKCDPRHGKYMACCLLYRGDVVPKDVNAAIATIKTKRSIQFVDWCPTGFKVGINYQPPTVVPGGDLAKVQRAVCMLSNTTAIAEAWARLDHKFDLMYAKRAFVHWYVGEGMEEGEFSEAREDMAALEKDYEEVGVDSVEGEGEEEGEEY
T1 sequence (Q6B856 whole entry): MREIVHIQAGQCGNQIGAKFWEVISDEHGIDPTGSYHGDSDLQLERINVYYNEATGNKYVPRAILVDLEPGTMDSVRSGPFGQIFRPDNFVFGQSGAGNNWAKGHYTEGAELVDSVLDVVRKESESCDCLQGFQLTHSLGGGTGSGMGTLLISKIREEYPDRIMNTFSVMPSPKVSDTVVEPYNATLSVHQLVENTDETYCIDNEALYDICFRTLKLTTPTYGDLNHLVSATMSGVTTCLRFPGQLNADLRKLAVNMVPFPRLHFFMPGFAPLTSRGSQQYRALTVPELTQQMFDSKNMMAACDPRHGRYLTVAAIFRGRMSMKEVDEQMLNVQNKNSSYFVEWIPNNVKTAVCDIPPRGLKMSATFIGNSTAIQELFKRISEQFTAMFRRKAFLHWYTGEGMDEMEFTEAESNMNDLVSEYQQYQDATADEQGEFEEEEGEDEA
Method: The data for 6 and 7 indicate that both alkaloids bind to tubulin and inhibit its assembly, and these effects are closely related to their antiproliferative activities against tumor cells. Thus, we further investigated whether the inhibition of tubulin polymerization was the major action of these alkaloids.
(§5) Inhibitory effects of compounds on tubulin assembly were evaluated using electrophoretically homogeneous bovine brain tubulin as described previously using 1.0 mg/mL (10 μM) tubulin. The turbidity development as tubulin assembly was initiated by adding 0.4 mM GTP and followed for 20 min at 30 °C following a rapid temperature jump. Compound concentrations as EC50 values that inhibited the increase in turbidity by 50% relative to a control sample were determined. In colchicine inhibition assays, tubulin (1.0 μM) was incubated with 5.0 μM [^3H] colchicine and 5.0 μM test compound at 37 °C for 10 min, when about 40–60% of maximum colchicine binding occurs in control samples.

A549 (lung carcinoma) = test: Antiproliferative SRB assay, A549; type: cell-based; conditions: Homo sapiens, A549, SRB assay, 72 h, read-out: IC50 A549
Method: as §1, §2, §3, §4

[4] = tested on: KB-VIN (VIN-resistant KB subline showing MDR phenotype by overexpressing P-gp); test: Antiproliferative SRB assay, KB-VIN; conditions: Homo sapiens, KBVIN, 72 h, read-out: IC50 KB-VIN
Method: as §1, §2, §3, §4

[5] = tested on: MDA-MB-231 (triple negative breast cancer); test: Antiproliferative SRB assay, MDA-MB-231; type: cell-based; conditions: Homo sapiens, MDA-MB-231, SRB assay, 72 h, read-out: IC50 MDA-MB-231
Method: as §1, §2, §3, §4

[6] = tested on: A549, MDA-MB-231, KB, KB-VIN, and MCF-7; test: Antiproliferative SRB assay, values stated across several cell lines; type: cell-based, human; conditions: for antiproliferative activity (in words): five human tumor cell lines including MDR subline KB-VIN
Method: as §1, §2, §3, §4

bovine brain tubulin = molecular target: T2, bovine brain tubulin (Bos taurus, UniProt P81947+Q6B856); test: Inhibition of purified tubulin assembly (turbidity); type: biochemical; conditions: 10 μM tubulin, 0.4 mM GTP, 20 min at 30 °C; NA = not active (IC50 > 40 µM); read-out: Tubulin Assay ITA: inhibition of purified tubulin assembly, EC50
T2 construct: electrophoretically homogeneous bovine brain tubulin; from tissue; host or cells: bovine brain
T2 sequence (P81947 whole entry): as the sequence (P81947 whole entry) above
T2 sequence (Q6B856 whole entry): as the sequence (Q6B856 whole entry) above
Method: as §5

KB-VIN cells [7] = test: Cell cycle analysis by flow cytometry (PI staining); type: cell-based, human; conditions: 24 h, 1 × IC50 or 3 × IC50
Method: KB-VIN cells were treated with compounds 3, 4, 6, 7, and 13 at their IC50 (1 × IC50) or three-fold IC50 (3 × IC50) concentration, and the cell cycle progression was analyzed by flow cytometer (Figure 2A).
(§6) Figure 2 Mitotic defects in KB-VIN cells treated by compounds. […] Cell cycle distributions (sub-G1, G1, S, G2/M) were analyzed using flow cytometry after staining cells with propidium iodide (PI). […] Fixed cells were stained with antibodies to α-tubulin (green) and phospho-histone H3 (pH3, red), and DAPI was used for DNA (blue). Stained cells were observed by confocal fluorescence microscope. The represented image is a projection of 15~20 optical sections acquired at 0.5~1 µm intervals. […] Bar, 0.025 mm. Additional images are available in Supplementary Figure S1.
KB-VIN cells were seeded in 12-well plates at a density of 1 × 10^5 per well and incubated overnight. […] The DNA contents of stained cells were analyzed by flow cytometer (LSRFortessa, BD Biosciences) controlled by FACSDiva software (BD Biosciences). Paclitaxel (PXL) was used at 3 or 6 µM. […] Experiments were repeated a minimum of two times.

KB-VIN cells [8] = test: Immunofluorescence staining of α-tubulin, pH3 and DNA; type: cell-based, human; conditions: 24 h, 3 × IC50
Method: as §6
To determine whether the cell cycle arrest was due to an antimicrotubule effect, cells treated with compounds were analyzed by immunocytochemistry using antibodies to α-tubulin for microtubules and mitotic spindles, Ser10-phosphorylated histone H3 (pH3) for the condensed chromatins and 4′,6-diamidino-2-phenylindole (DAPI) for DNA. […] Thus, we concluded that these alkaloids are tubulin polymerization inhibitors.
Immunocytochemical analysis was performed as previously described. […] After treatment of cells with the agent for 24 h, cells were fixed with 4% paraformaldehyde in PBS and permeabilized with 0.5% Triton X-100 in PBS. Fixed cells were labeled with mouse monoclonal antibody to α-tubulin (B5-1-2, Sigma) and rabbit IgG to Ser10-phosphorylated histone H3 (p-H3) (#06570, EMD Millipore), followed by FITC-conjugated antibody to mouse IgG (Sigma) and Alexa Fluor 549-conjugated antibody to rabbit IgG (Life Technologies). Nuclei were labeled with DAPI (Sigma). Fluorescently-labeled cells were observed using a confocal microscope (Zeiss, LSM700) with ZEN (black edition) software (Zeiss). The 15~20 optical sections acquired at 0.5~1 µm intervals were stacked and reconstructed using ZEN (black edition) software. Experiments were repeated at least twice for each compound. Final images were prepared using Adobe Photoshop CS3.

[9] = Homo sapiens, A549, KB, KB-VIN, range stated for the group of compounds, read-out: IC50 values ranging over A549, KB and KB-VIN cells

| SMILES | IC50 ([1]; positive controls, unit nM) [nM] | IC50 ([2]; positive controls, unit nM) [nM] | Tubulin Assay ICB: percent inhibition of [3H]colchicine binding [3] | inhibition at 5 µM [3] [%] | IC50 (A549 (lung carcinoma); positive controls, unit nM) [nM] | IC50 [4] [nM] | IC50 ([5]; positive controls, unit nM) [nM] | antiproliferative activity (in words) [6] | EC50 (bovine brain tubulin) [nM] | IC50 [1] [nM] | IC50 [2] [nM] | IC50 (A549 (lung carcinoma)) [nM] | IC50 [5] [nM] | fold rise in potency by a methoxy group at C-11 ([6]; 6 compared with 5, 9 compared with 8) | IC50 [6, 9] [nM] | effect on cell cycle progression (KB-VIN cells [7]) | microtubule / mitotic spindle morphology (KB-VIN cells [8]) | IC50 ([6]; five human tumor cell lines, read-out: IC50 range over the cell lines tested) [nM] |
| --- | --- | --- | --- | --- | --- | --- | --- | --- | --- | --- | --- | --- | --- | --- | --- | --- | --- | --- |
| COc1ccc(/C=C\c2cc(OC)c(OC)c(OC)c2)cc1O [CA-4, combretastatin A-4, reference compound] | 487 ± 11 | 3.6 ± 0.1 | totally inhibited | 100 ± 0.4 | 5.5 ± 0.1 | 3.8 ± 0.1 | 8.2 ± 0.5 |  |  |  |  |  |  |  |  |  |  |  |
| CC[C@@]12CC(C(=O)OC)=C3Nc4ccccc4[C@@]34CCN(C[C@@H]3O[C@@H]31)[C@@H]24 [Compound 5, lochnericine] |  |  |  | 0 |  | > 40000 |  | essentially inactive | > 40000 | > 40000 | > 40000 | > 40000 | > 40000 |  |  |  |  |  |
| CC[C@@]12CC(C(=O)OC)=C3Nc4cc(OC)ccc4[C@@]34CCN(C[C@@H]3O[C@@H]31)[C@@H]24 [Compound 6, 14,15-α-epoxy-11-methoxytabersonine] |  |  |  | 54 ± 0.8 |  | 500 |  | exhibited antiproliferative activity against all cell lines; also recorded: significant antiproliferative effects against all five tumor cell lines | 700 | 800 | 500 | 500 | 800 | ~ 60 fold | 500 to 900 | accumulation of cells in the G2/M phase; also recorded: cell cycle arrest at G2/M | dotted tubulin aggregations without spindles |  |
| CC[C@@]12CC(C(=O)OC)=C3Nc4cc(O)ccc4[C@@]34CCN(C[C@@H]3O[C@@H]31)[C@@H]24 [Compound 7, 11-hydroxylochnericine] |  |  |  | 35 ± 1 |  | 6100 ± 400 |  | exhibited antiproliferative activity against all cell lines; also recorded: significant antiproliferative effects against all five tumor cell lines | 4600 ± 100 | 10800 ± 800 | 5400 ± 300 | 5600 ± 100 | 9800 ± 900 |  |  | accumulation of cells in the G2/M phase; also recorded: cell cycle arrest at G2/M | dotted tubulin aggregations without spindles |  |
| COC(=O)C1=C2Nc3cc(O)ccc3C23CCN2CC=CC(C(C)OC(C)=O)(C1)C23 [Compound 13, 19-(R)-acetoxy-11-hydroxytabersonine] |  |  |  |  |  | 700 |  | exhibited antiproliferative activity against all cell lines; also recorded: significant antiproliferative effects against all five tumor cell lines |  | 6700 ± 100 | 700 | 700 ± 100 | 900 |  | 500 to 900 | accumulation of cells in the G2/M phase; also recorded: cell cycle arrest at G2/M | dotted tubulin aggregations without spindles | 600 to 6700 |
